According to PubChem BioAssay AID2060605 (Molecular Pharmacology Branch, DTP, NCI, 2025):

Test system: 947758-054-R-J2-PDC spheroid growth, percent test/control
Assay: Anticancer human tumor 947758-054-R-J2-PDC patient-derived colon adenocarcinoma cell line growth inhibition [CLK]
Conditions: spheroids with HUVEC and MSC; for IC50: curve of first compound; for viability, T/C: stronger effect = lower value
Summary of the method: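 Patient-derived tumor cells grown as complex spheroids with HUVEC endothelial cells and mesenchymal stem cells, treated with drug combinations. Concentrations descend in half-log steps from near clinical Cmax, or from 10 microM if Cmax unknown.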

[1] = second compound 0.0316 µM, first compound 0.0316 µM
[2] = second compound 0.0316 µM, first compound 0.1 µM
[3] = second compound 0.0316 µM, first compound 0.316 µM
[4] = second compound 0.0316 µM, first compound 1 µM
[5] = second compound 0.0316 µM, first compound 3.16 µM
[6] = second compound 0.0316 µM, first compound 10 µM
[7] = second compound 0.1 µM, first compound 0.0316 µM
[8] = second compound 0.1 µM, first compound 0.1 µM
[9] = second compound 0.1 µM, first compound 0.316 µM
[10] = second compound 0.1 µM, first compound 1 µM
[11] = second compound 0.1 µM, first compound 3.16 µM
[12] = second compound 0.1 µM, first compound 10 µM
[13] = second compound 0.316 µM, first compound 0.0316 µM
[14] = second compound 0.316 µM, first compound 0.1 µM
[15] = second compound 0.316 µM, first compound 0.316 µM
[16] = second compound 0.316 µM, first compound 1 µM
[17] = second compound 0.316 µM, first compound 3.16 µM
[18] = second compound 0.316 µM, first compound 10 µM
[19] = second compound 1 µM, first compound 0.0316 µM
[20] = second compound 1 µM, first compound 0.1 µM
[21] = second compound 1 µM, first compound 0.316 µM
[22] = second compound 1 µM, first compound 1 µM
[23] = second compound 1 µM, first compound 3.16 µM
[24] = second compound 1 µM, first compound 10 µM
[25] = second compound 3.16 µM, first compound 0.0316 µM
[26] = second compound 3.16 µM, first compound 0.1 µM
[27] = second compound 3.16 µM, first compound 0.316 µM
[28] = second compound 3.16 µM, first compound 1 µM
[29] = second compound 3.16 µM, first compound 3.16 µM
[30] = second compound 3.16 µM, first compound 10 µM
[31] = second compound 10 µM, first compound 0.0316 µM
[32] = second compound 10 µM, first compound 0.1 µM
[33] = second compound 10 µM, first compound 0.316 µM
[34] = second compound 10 µM, first compound 1 µM
[35] = second compound 10 µM, first compound 3.16 µM
[36] = second compound 10 µM, first compound 10 µM
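Further: spheroids exposed to compounds for one week before readout.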
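Wherever viability, T/C is given: 100% = DMSO vehicle control wells.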

SMILES: C#Cc1c(F)ccc2cc(O)cc(-c3ncc4c(N5CC6CCC(C5)N6)nc(OCC56CCCN5CC(F)C6)nc4c3F)c12 (stereo not drawn) + CNC(=O)c1ccc(Nc2nc(OC3CCCC3)c3c(-c4ccc5nc(C)oc5c4)c[nH]c3n2)c(OC)c1
- IC50 (second compound 0.0316 µM): > 10 µM
- IC50 (second compound 0.1 µM): > 10 µM
- IC50 (second compound 0.316 µM): > 10 µM
- IC50 (second compound 1 µM): 3.64 µM
- IC50 (second compound 3.16 µM): < 0.0316 µM
- IC50 (second compound 10 µM): < 0.0316 µM
- viability, T/C [1]: 82.3%
- viability, T/C [2]: 77.8%
- viability, T/C [3]: 79.1%
- viability, T/C [4]: 73.4%
- viability, T/C [5]: 77%
- viability, T/C [6]: 66.8%
- viability, T/C [7]: 88.6%
- viability, T/C [8]: 92.6%
- viability, T/C [9]: 79%
- viability, T/C [10]: 91.7%
- viability, T/C [11]: 103%
- viability, T/C [12]: 79.2%
- viability, T/C [13]: 64.9%
- viability, T/C [14]: 75.3%
- viability, T/C [15]: 66.6%
- viability, T/C [16]: 91%
- viability, T/C [17]: 77.4%
- viability, T/C [18]: 56.4%
- viability, T/C [19]: 44.4%
- viability, T/C [20]: 56.8%
- viability, T/C [21]: 47.4%
- viability, T/C [22]: 53.8%
- viability, T/C [23]: 55.8%
- viability, T/C [24]: 38.1%
- viability, T/C [25]: 43.2%
- viability, T/C [26]: 35.4%
- viability, T/C [27]: 40.4%
- viability, T/C [28]: 46.7%
- viability, T/C [29]: 44.4%
- viability, T/C [30]: 29.5%
- viability, T/C [31]: 36%
- viability, T/C [32]: 24.8%
- viability, T/C [33]: 30.9%
- viability, T/C [34]: 32.2%
- viability, T/C [35]: 31.7%
- viability, T/C [36]: 24.4%

SMILES: C=C(F)C(=O)N1CCN(c2nc(OCC3CCCN3C)nc3c2CCN(c2cccc4cccc(Cl)c24)C3)CC1CC#N (stereo not drawn) + CNC(=O)c1ccc(Nc2nc(OC3CCCC3)c3c(-c4ccc5nc(C)oc5c4)c[nH]c3n2)c(OC)c1
- IC50 (second compound 0.0316 µM): 6.1 µM
- IC50 (second compound 0.1 µM): 4.95 µM
- IC50 (second compound 0.316 µM): 3.83 µM
- IC50 (second compound 1 µM): < 0.0316 µM
- IC50 (second compound 3.16 µM): < 0.0316 µM
- IC50 (second compound 10 µM): < 0.0316 µM
- viability, T/C [1]: 88.6%
- viability, T/C [2]: 66.7%
- viability, T/C [3]: 83.4%
- viability, T/C [4]: 99.7%
- viability, T/C [5]: 132%
- viability, T/C [6]: 16.8%
- viability, T/C [7]: 96.9%
- viability, T/C [8]: 71.1%
- viability, T/C [9]: 79.6%
- viability, T/C [10]: 98%
- viability, T/C [11]: 76.9%
- viability, T/C [12]: 7.83%
- viability, T/C [13]: 76.9%
- viability, T/C [14]: 65.9%
- viability, T/C [15]: 57.6%
- viability, T/C [16]: 77.2%
- viability, T/C [17]: 59.2%
- viability, T/C [18]: 3.73%
- viability, T/C [19]: 38.5%
- viability, T/C [20]: 34.6%
- viability, T/C [21]: 35.7%
- viability, T/C [22]: 54.8%
- viability, T/C [23]: 47.5%
- viability, T/C [24]: 0.18%
- viability, T/C [25]: 41.5%
- viability, T/C [26]: 34.3%
- viability, T/C [27]: 31.2%
- viability, T/C [28]: 47.8%
- viability, T/C [29]: 32.4%
- viability, T/C [30]: 0.49%
- viability, T/C [31]: 29.4%
- viability, T/C [32]: 33.3%
- viability, T/C [33]: 30%
- viability, T/C [34]: 30.2%
- viability, T/C [35]: 21.6%
- viability, T/C [36]: 0.36%

SMILES: C=CC(=O)N1CCN(c2nc(=O)n(-c3c(C)ccnc3C(C)C)c3nc(-c4c(O)cccc4F)c(F)cc23)C(C)C1 (stereo not drawn) + CNC(=O)c1ccc(Nc2nc(OC3CCCC3)c3c(-c4ccc5nc(C)oc5c4)c[nH]c3n2)c(OC)c1
- IC50 (second compound 0.0316 µM): > 10 µM
- IC50 (second compound 0.1 µM): > 10 µM
- IC50 (second compound 0.316 µM): 6.2 µM
- IC50 (second compound 1 µM): < 0.0316 µM
- IC50 (second compound 3.16 µM): < 0.0316 µM
- IC50 (second compound 10 µM): < 0.0316 µM
- viability, T/C [1]: 64.6%
- viability, T/C [2]: 69.5%
- viability, T/C [3]: 68.2%
- viability, T/C [4]: 70.9%
- viability, T/C [5]: 65.9%
- viability, T/C [6]: 51.8%
- viability, T/C [7]: 78.4%
- viability, T/C [8]: 72.3%
- viability, T/C [9]: 66.1%
- viability, T/C [10]: 75.5%
- viability, T/C [11]: 68%
- viability, T/C [12]: 51.3%
- viability, T/C [13]: 70.4%
- viability, T/C [14]: 68.8%
- viability, T/C [15]: 47.1%
- viability, T/C [16]: 80.7%
- viability, T/C [17]: 77.5%
- viability, T/C [18]: 36.7%
- viability, T/C [19]: 43.3%
- viability, T/C [20]: 45.8%
- viability, T/C [21]: 36.9%
- viability, T/C [22]: 54.5%
- viability, T/C [23]: 45%
- viability, T/C [24]: 20%
- viability, T/C [25]: 43.1%
- viability, T/C [26]: 38.1%
- viability, T/C [27]: 40.9%
- viability, T/C [28]: 40.9%
- viability, T/C [29]: 31.2%
- viability, T/C [30]: 16%
- viability, T/C [31]: 32.1%
- viability, T/C [32]: 28.1%
- viability, T/C [33]: 28.6%
- viability, T/C [34]: 25.7%
- viability, T/C [35]: 21.1%
- viability, T/C [36]: 15.1%

SMILES: CC(CO)NC(=O)c1cc(-c2ccc(Cl)cc2)nn(-c2cnn(C)c2)c1=O (stereo not drawn) + CNC(=O)c1ccc(Nc2nc(OC3CCCC3)c3c(-c4ccc5nc(C)oc5c4)c[nH]c3n2)c(OC)c1
- IC50 (second compound 0.0316 µM): > 10 µM
- IC50 (second compound 0.1 µM): > 10 µM
- IC50 (second compound 0.316 µM): 9.67 µM
- IC50 (second compound 1 µM): > 10 µM
- IC50 (second compound 3.16 µM): < 0.0316 µM
- IC50 (second compound 10 µM): < 0.0316 µM
- viability, T/C [1]: 92.2%
- viability, T/C [2]: 66.3%
- viability, T/C [3]: 72.1%
- viability, T/C [4]: 71.8%
- viability, T/C [5]: 65.8%
- viability, T/C [6]: 52.3%
- viability, T/C [7]: 84.3%
- viability, T/C [8]: 93.9%
- viability, T/C [9]: 80%
- viability, T/C [10]: 84.6%
- viability, T/C [11]: 68.6%
- viability, T/C [12]: 52.5%
- viability, T/C [13]: 76.2%
- viability, T/C [14]: 69%
- viability, T/C [15]: 69.8%
- viability, T/C [16]: 87.1%
- viability, T/C [17]: 88.5%
- viability, T/C [18]: 49.1%
- viability, T/C [19]: 67.2%
- viability, T/C [20]: 51.9%
- viability, T/C [21]: 52.7%
- viability, T/C [22]: 65.3%
- viability, T/C [23]: 72.4%
- viability, T/C [24]: 35.9%
- viability, T/C [25]: 46.9%
- viability, T/C [26]: 41%
- viability, T/C [27]: 51.1%
- viability, T/C [28]: 56.6%
- viability, T/C [29]: 55.9%
- viability, T/C [30]: 37.2%
- viability, T/C [31]: 28.5%
- viability, T/C [32]: 44.2%
- viability, T/C [33]: 40.4%
- viability, T/C [34]: 41.6%
- viability, T/C [35]: 30%
- viability, T/C [36]: 25.9%
